# Tested on: not listed separately
# Experiment: Lipophilicity, LogP of the compound at pH 7.4 by reverse-phase HPLC
# Format: physicochemical
# Details: buffer
row,logP,Structure (SMILES)
1,1.26,COc1ccccc1Oc1cc([N+](=O)[O-])ccc1NS(C)(=O)=O
2,1.65,COc1cccc(Oc2cc([N+](=O)[O-])ccc2NS(C)(=O)=O)c1
3,1.41,COc1ccc(Oc2cc([N+](=O)[O-])ccc2NS(C)(=O)=O)cc1

# Biological target: T1, Prostaglandin G/H synthase 1 (Ovis aries, UniProt P05979)
# T1 sequence (P05979 whole entry): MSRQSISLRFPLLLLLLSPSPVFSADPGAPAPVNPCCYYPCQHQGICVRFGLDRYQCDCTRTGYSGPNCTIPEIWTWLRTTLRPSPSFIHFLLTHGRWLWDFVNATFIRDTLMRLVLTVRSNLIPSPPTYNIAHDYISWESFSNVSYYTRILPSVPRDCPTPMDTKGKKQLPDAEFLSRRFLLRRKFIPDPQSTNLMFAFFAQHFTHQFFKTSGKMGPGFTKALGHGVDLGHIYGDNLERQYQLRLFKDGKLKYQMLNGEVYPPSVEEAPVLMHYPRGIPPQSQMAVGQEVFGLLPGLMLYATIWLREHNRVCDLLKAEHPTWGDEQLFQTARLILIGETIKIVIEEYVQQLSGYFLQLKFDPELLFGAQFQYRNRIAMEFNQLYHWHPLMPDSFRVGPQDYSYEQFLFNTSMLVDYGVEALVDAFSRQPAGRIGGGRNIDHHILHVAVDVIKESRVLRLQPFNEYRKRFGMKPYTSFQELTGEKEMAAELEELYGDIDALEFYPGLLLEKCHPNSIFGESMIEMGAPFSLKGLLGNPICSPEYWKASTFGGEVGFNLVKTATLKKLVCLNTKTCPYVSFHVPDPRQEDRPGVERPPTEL
# Experiment: Inhibition of ovine COX-1 using arachidonic acid after 5 mins by colorimetric method
# Details: not given
row,IC50 [µM],Structure (SMILES)
1,> 100,COc1ccccc1Oc1cc([N+](=O)[O-])ccc1NS(C)(=O)=O
2,> 100,CS(=O)(=O)Nc1ccc([N+](=O)[O-])cc1Oc1ccccc1 [NIMESULIDE]
3,> 100,COc1cccc(Oc2cc([N+](=O)[O-])ccc2NS(C)(=O)=O)c1
4,> 100,COc1ccc(Oc2cc([N+](=O)[O-])ccc2NS(C)(=O)=O)cc1

# Tested on: not listed separately
# Experiment: Apparent permeability across basolateral to apical side in human Caco2 cells at 10 uM after 2 hrs […] by LC-MS method
# Format: ADME, cell-based
# Details: Caco-2
row,"Papp B→A at 2 h, 10 µM [×10⁻⁶ cm/s]",Structure (SMILES)
1,25.4,COc1ccccc1Oc1cc([N+](=O)[O-])ccc1NS(C)(=O)=O
2,51.9,COc1cccc(Oc2cc([N+](=O)[O-])ccc2NS(C)(=O)=O)c1
3,3.1,COc1ccc(Oc2cc([N+](=O)[O-])ccc2NS(C)(=O)=O)cc1

# Tested on: not listed separately
# Experiment: Apparent permeability across apical to basolateral side in human Caco2 cells at 10 uM after 1 hr by LC-MS method
# Format: ADME, cell-based
# Details: Caco-2
row,"Papp A→B at 1 h, 10 µM [×10⁻⁶ cm/s]",Structure (SMILES)
1,38.1,COc1ccccc1Oc1cc([N+](=O)[O-])ccc1NS(C)(=O)=O
2,52.3,COc1cccc(Oc2cc([N+](=O)[O-])ccc2NS(C)(=O)=O)c1
3,18.2,COc1ccc(Oc2cc([N+](=O)[O-])ccc2NS(C)(=O)=O)cc1

# Tested on: not listed separately
# Experiment: Apparent permeability across basolateral to apical side in human Caco2 cells at 1 uM after 2 hrs by LC-MS method
# Format: ADME, cell-based
# Details: Caco-2
row,"Papp B→A at 2 h, 1 µM [×10⁻⁶ cm/s]",Structure (SMILES)
1,8.5,COc1ccccc1Oc1cc([N+](=O)[O-])ccc1NS(C)(=O)=O
2,40.4,COc1cccc(Oc2cc([N+](=O)[O-])ccc2NS(C)(=O)=O)c1
3,6.8,COc1ccc(Oc2cc([N+](=O)[O-])ccc2NS(C)(=O)=O)cc1

# Tested on: not listed separately
# Experiment: Apparent permeability across apical to basolateral side in human Caco2 cells at 1 uM after 1 hr by LC-MS method
# Format: ADME, cell-based
# Details: Caco-2
row,"Papp A→B at 1 h, 1 µM [×10⁻⁶ cm/s]",Structure (SMILES)
1,11.2,COc1ccccc1Oc1cc([N+](=O)[O-])ccc1NS(C)(=O)=O
2,42.7,COc1cccc(Oc2cc([N+](=O)[O-])ccc2NS(C)(=O)=O)c1
3,8.3,COc1ccc(Oc2cc([N+](=O)[O-])ccc2NS(C)(=O)=O)cc1

# Reference: ChEMBL document CHEMBL3627656 (Bioorg Med Chem, 2015)
